# Experimental data as given in US11591359B2, “Enzyme-specific intracellularly-retained red fluorescent probe” (priority 2016, dated 2023).
# “Also recorded” adds a separate entry of the source.
# Columns and labels:
# β-galactosidase [1] = biological target: T1, β-galactosidase (Escherichia coli, UniProt P00722); assay: Labeling of fluorescent dye to BSA protein by β-galactosidase enzyme reaction in presence of BSA (SDS-PAGE fluorescence); assay type: biochemical; settings: 1 mg/mL BSA, 5U β-galactosidase in PBS; for fluorescent labeling of BSA (fluorescence at the position of BSA after SDS electrophoresis): 10 μM compound, excitation 488 nm, fluorescence 540 to 600 nm
# T1 sequence (P00722 2-1024): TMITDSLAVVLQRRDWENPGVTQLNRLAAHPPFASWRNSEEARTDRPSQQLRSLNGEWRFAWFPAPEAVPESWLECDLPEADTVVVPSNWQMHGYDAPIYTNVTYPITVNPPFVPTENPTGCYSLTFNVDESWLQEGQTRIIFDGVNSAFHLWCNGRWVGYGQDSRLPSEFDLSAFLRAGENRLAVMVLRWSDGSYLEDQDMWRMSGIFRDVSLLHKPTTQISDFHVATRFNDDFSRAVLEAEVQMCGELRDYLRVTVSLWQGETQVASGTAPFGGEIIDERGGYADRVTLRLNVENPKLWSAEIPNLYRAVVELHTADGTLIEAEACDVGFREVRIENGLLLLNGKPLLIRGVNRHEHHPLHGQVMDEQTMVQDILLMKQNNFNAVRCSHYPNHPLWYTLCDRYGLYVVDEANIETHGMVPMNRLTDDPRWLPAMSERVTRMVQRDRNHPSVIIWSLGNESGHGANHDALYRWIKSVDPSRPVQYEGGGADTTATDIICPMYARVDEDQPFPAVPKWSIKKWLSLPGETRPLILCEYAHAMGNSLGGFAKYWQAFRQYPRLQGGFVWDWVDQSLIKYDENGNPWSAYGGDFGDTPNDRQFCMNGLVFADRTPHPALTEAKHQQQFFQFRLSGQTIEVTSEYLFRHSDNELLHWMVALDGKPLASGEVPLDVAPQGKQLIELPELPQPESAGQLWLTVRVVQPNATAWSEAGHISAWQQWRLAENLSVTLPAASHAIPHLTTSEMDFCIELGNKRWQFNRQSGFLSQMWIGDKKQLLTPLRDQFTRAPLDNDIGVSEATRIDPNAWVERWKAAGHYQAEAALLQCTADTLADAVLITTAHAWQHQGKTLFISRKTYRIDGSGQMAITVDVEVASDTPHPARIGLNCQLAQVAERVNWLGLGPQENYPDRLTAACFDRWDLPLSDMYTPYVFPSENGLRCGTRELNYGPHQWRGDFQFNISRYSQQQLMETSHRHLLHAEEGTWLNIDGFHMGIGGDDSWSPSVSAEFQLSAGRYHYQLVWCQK
# Protocol: The measurement results of 4-CH2F-SPiDER-RED-βGal are shown in FIG. 3, and the measurement results of 2-CH2F-SPiDER-RED-βGal are shown in FIG. 4.
# Using 1) 10 μL of a PBS buffer solution containing 10 μM […], 1 mg/mL BSA, and 5U β-galactosidase, 2) 10 μL of a PBS buffer solution containing 10 μM 4-CH2F-SPiDER-RED-βGal and 1 mg/mL BSA, 3) 10 μL of a PBS buffer solution containing 10 μM 4-CH2F-SPiDER-RED-βGal and 5U β-galactosidase, 4) 10 μL of a PBS buffer solution containing only 10 μM 4-CH2F-SPiDER-RED-βGal, and 5) 10 μL of a PBS buffer solution containing 10 μM 4-CH2OH-SPiDER-RED, the reaction products were subjected to SDS-PAGE (running gel: 10%, stacking gel: 4%, electrophoresis voltage: 200 V). […] After observation, each gel was Coomassie stained and the position of the BSA on the gel was confirmed (FIG. 3(b)).
# FIGS. 4(a) and 4(b) show the results of similar measurement using 10 μM 2-CH2F-SPiDER-RED-βGal instead of 10 μM 4-CH2F-SPiDER-RED-βGal.
# β-galactosidase [2] = biological target: T1, β-galactosidase; assay: Changes in absorption and fluorescence spectra by enzyme reaction; assay type: biochemical; settings: 1 μM probe in PBS buffer, 5U β-galactosidase; for fluorescence emission in response to enzyme activity of β-galactosidase: excitation 610 nm, fluorescence 638 nm, 3600 seconds
# Protocol: For the probe compounds of the present invention obtained in Example 1 (4-CH2F-SPiDER-RED-βGal and 2-CH2F-SPiDER-RED-βGal), changes in absorption and fluorescence spectra according to the addition of β-galactosidase were measured. The measurement results of 4-CH2F-SPiDER-RED-βGal are shown in FIG. 1, and the measurement results of 2-CH2F-SPiDER-RED-βGal are shown in FIG. 2.
# The measurement conditions are as follows: an excitation wavelength of 610 nm, a slit (excitation/fluorescence) of 2.5 nm/2.5 nm, and a photomultiplier voltage of 700 V.
# Measurements were carried out by adding 5U β-galactosidase to 2-CH2F-SPiDER-RED-βGal prepared at 1 μM in a PBS buffer solution. […] The measurement conditions are as follows: an excitation wavelength of 610 nm, a slit (excitation/fluorescence) of 2.5 nm/2.5 nm, and a photomultiplier voltage of […].
# [3] = tested on: Wing discs of a drosophila (en-lacZ/dpp-GFP) expressing β-galactosidase and GFP; assay: Non-fixed fluorescence imaging of living biological tissue having β-galactosidase activity; assay type: cell-based, Drosophila melanogaster; settings: room temperature for 2 hours, excitation 594 nm, fluorescence 601 to 681 nm
# Protocol: Next, we have examined whether the probe compound of the present invention, 4-CHF2-SPiDER-RED-βGal, can be applied to fluorescence imaging of living biological tissues by using drosophila tissues.
# Wing discs of a drosophila (Drosophila melanogaster, en-lacZ/dpp-GFP) expressing β-galactosidase and GFP in some tissues were incubated with 4-CHF2-SPiDER-RED-βGal and Hoechst 33342 at room temperature for 2 hours, and then observed under a confocal microscope (TCS SP8, manufactured by Leica). White light laser (WLL) was used as laser, and HCX PL APO CS 40×/1.25 (40 times, manufactured by Leica) was used as an objective lens. The measurement conditions are as follows: excitation wavelengths: 405 nm (Hoechst 33342), 488 nm (GFP), 594 nm (4-CHF2-SPiDER-RED-βGal), fluorescence wavelengths: 420 to 490 nm (Hoechst 33342), 490 to 570 nm (GFP), 601 to 681 nm (4-CHF2-SPiDER-RED-βGal), and a scale: 75 μm.
# [4] = tested on: cells not expressing β-galactosidase (HEK); assay: Fluorescence imaging of living cells, co-cultured cells not expressing β-galactosidase; assay type: cell-based; settings: 37° C. for 30 minutes, no washing; excitation 594 nm, fluorescence 610 to 700 nm
# Protocol: (§1) 4-CHF2-SPiDER-RED-βGal was added to a dish in which cells expressing β-galactosidase (HEK-lacZ) and cells not expressing β-galactosidase (HEK) were co-cultured, and incubated at 37° C. for 30 minutes. The HEK cells were previously stained with CellTracker (TM) Green. A fluorescence image and a transmitted light image were acquired using a confocal microscope (TCS SP5X; manufactured by Leica). White light laser (WLL) was used as laser, and HCX PL APO CS 40×/1.25 (40 times, manufactured by Leica) was used as an objective lens. The observation conditions were as follows: an excitation wavelength: 594 nm, a fluorescence wavelength: 610 to 700 nm, and a scale: 25 μm.
# [5] = tested on: cells expressing β-galactosidase (HEK-lacZ); assay: Fluorescence imaging of living cells expressing β-galactosidase (co-culture, confocal microscope); assay type: cell-based; settings: 37° C. for 30 minutes, no washing; excitation 594 nm, fluorescence 610 to 700 nm
# Protocol: as §1
Compound,fluorescent labeling of BSA (fluorescence at the position of BSA after SDS electrophoresis) (β-galactosidase [1]),fluorescent labeling of BSA (fluorescence at the position of BSA after SDS electrophoresis) (β-galactosidase [1]; listed as 2-CHF2-SPiDER-RED-βGal),fluorescence intensity of labeled BSA (comparison of the two probes) (β-galactosidase [1]; 10 μM probe),reactivity with the enzyme (β-galactosidase [1]; 10 μM probe),fluorescence emission in response to enzyme activity of β-galactosidase (β-galactosidase [2]),"selective fluorescence imaging of the region / cells having β-galactosidase activity in living tissue ([3]; with Hoechst 33342, listed as 4-CHF2-SPiDER-RED-βGal)",diffusion of fluorescence of the enzyme reaction product in tissue [3],red fluorescence signal in HEK cells not expressing β-galactosidase [4],red fluorescence in HEK-lacZ cells [5],fluorescence increasing rate (comparison of the two probes) (β-galactosidase [2]),reactivity with β-galactosidase (comparison of the two probes) (β-galactosidase [2])
CN(C)c1ccc2c(c1)[Si](C)(C)c1cc(O[C@@H]3O[C@H](CO)[C@H](O)[C@H](O)[C@H]3O)c(CF)cc1C21OC(=O)c2ccccc21 (some centres unmarked) [2-CH2F-SPiDER-RED-βGal],fluorescently label bovine serum albumin (BSA) protein,BSA was fluorescently labeled,lower than that of 4-CHF2-SPiDER-RED-βGal,low,emit fluorescence specifically in response to enzyme activity of β-galactosidase,,,,,,
CN(C)c1ccc2c(c1)[Si](C)(C)c1c(ccc(O[C@@H]3O[C@H](CO)[C@H](O)[C@H](O)[C@H]3O)c1CF)C21OC(=O)c2ccccc21 (some centres unmarked) [4-CH2F-SPiDER-RED-βGal],fluorescently label bovine serum albumin (BSA) protein,,,,emit fluorescence specifically in response to enzyme activity of β-galactosidase,selective fluorescence imaging of the region having β-galactosidase activity was possible; also recorded: can be detected at a single-cell level,no diffusion of fluorescence,no red fluorescence signal was obtained,red fluorescence derived from the test compound was observed only in HEK-lacZ cells,higher fluorescence increasing rate than 2-CHF2-SPiDER-RED-βGal,higher reactivity with β-galactosidase
"CN(C)c1ccc2c(c1)[Si](C)(C)c1c(ccc(O)c1CO)C21OC(=O)c2ccccc21 (centres unmarked) [4-CH2OH-SPiDER-RED, reference compound]",fluorescence was not observed,,,,,,,,,,
